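Exposure lasted 48 hours, with cells grown in 96-well plates and compounds tested at five concentrations. TGI marks complete inhibition of growth.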

The first assay relates to COLO 205 colon. The experiment in a line: NCI-60 cell line screen, 48 h.
`CC[C@]1(Cc2ccc(OC)c(OC)c2)[C@@H]2C[C@@H](C3OCCO3)ON2O[C@H](OC2CCCC2(c2ccccc2)c2ccccc2)[C@@H]1OC(C)=O` (stereo partly drawn) yielded a TGI of 69.3 µM.

In turn, `N#CC1(C#N)C2CCCCC23OC(=N)C1(C#N)C(c1ccccc1)O3` (stereo not drawn) had a TGI of 34.1 µM.

`CCN1CCN=c2c3cc(OC)ccc3n3cnc4ccc1c2c43`: the TGI amounted to 0.606 µM.

In the case of `Cc1ccsc1/C=N/Nc1ccc2ccccc2n1`, the TGI is over 100 µM.

A further assay relates to UO-31 renal. In words: NCI-60 cell line screen, 48 h.
In turn, `CC[C@]1(Cc2ccc(OC)c(OC)c2)[C@@H]2C[C@@H](C3OCCO3)ON2O[C@H](OC2CCCC2(c2ccccc2)c2ccccc2)[C@@H]1OC(C)=O` (stereo partly drawn) gave a TGI of 37.7 µM.

`N#CC1(C#N)C2CCCCC23OC(=N)C1(C#N)C(c1ccccc1)O3` (stereo not drawn) had a TGI of over 100 µM.

Regarding `CCN1CCN=c2c3cc(OC)ccc3n3cnc4ccc1c2c43`, the TGI was found to be 0.385 µM.

With `Cc1ccsc1/C=N/Nc1ccc2ccccc2n1`, the TGI is over 100 µM.

In another assay the test system is HCC-2998 colon. The experiment in a line: NCI-60 cell line screen, 48 h.
Compound `N#CC1(C#N)C2CCCCC23OC(=N)C1(C#N)C(c1ccccc1)O3` (stereo not drawn) showed a TGI of 29 µM.

`CCN1CCN=c2c3cc(OC)ccc3n3cnc4ccc1c2c43` registered a TGI of 0.94 µM.

Turning to `Cc1ccsc1/C=N/Nc1ccc2ccccc2n1`, the TGI is over 100 µM.

The next assay deals with U251 CNS. The experiment in a line: NCI-60 cell line screen, 48 h.
`CC[C@]1(Cc2ccc(OC)c(OC)c2)[C@@H]2C[C@@H](C3OCCO3)ON2O[C@H](OC2CCCC2(c2ccccc2)c2ccccc2)[C@@H]1OC(C)=O` (stereo partly drawn) gave a TGI of over 100 µM.

Consider `N#CC1(C#N)C2CCCCC23OC(=N)C1(C#N)C(c1ccccc1)O3` (stereo not drawn), for which the TGI worked out at 69.6 µM.

Consider `CCN1CCN=c2c3cc(OC)ccc3n3cnc4ccc1c2c43`, for which the TGI was 1.05 µM.

Compound `Cc1ccsc1/C=N/Nc1ccc2ccccc2n1` showed a TGI of over 100 µM.

For another assay, the system named is SW-620 colon. In words: NCI-60 cell line screen, 48 h.
The compound `CC[C@]1(Cc2ccc(OC)c(OC)c2)[C@@H]2C[C@@H](C3OCCO3)ON2O[C@H](OC2CCCC2(c2ccccc2)c2ccccc2)[C@@H]1OC(C)=O` (stereo partly drawn) had a TGI of over 100 µM.

The compound `N#CC1(C#N)C2CCCCC23OC(=N)C1(C#N)C(c1ccccc1)O3` (stereo not drawn) showed a TGI of over 100 µM.

Consider `CCN1CCN=c2c3cc(OC)ccc3n3cnc4ccc1c2c43`, for which the TGI stood at 2.08 µM.

Turning to `Cc1ccsc1/C=N/Nc1ccc2ccccc2n1`, the TGI is over 100 µM.

Another assay relates to DU-145 prostate. The experiment in a line: NCI-60 cell line screen, 48 h.
In the case of `CC[C@]1(Cc2ccc(OC)c(OC)c2)[C@@H]2C[C@@H](C3OCCO3)ON2O[C@H](OC2CCCC2(c2ccccc2)c2ccccc2)[C@@H]1OC(C)=O` (stereo partly drawn), the TGI is 83.9 µM.

`N#CC1(C#N)C2CCCCC23OC(=N)C1(C#N)C(c1ccccc1)O3` (stereo not drawn) came in with a TGI of 64.3 µM.

As to `CCN1CCN=c2c3cc(OC)ccc3n3cnc4ccc1c2c43`, the TGI turned out to be 2.73 µM.

Turning to `Cc1ccsc1/C=N/Nc1ccc2ccccc2n1`, the TGI is over 100 µM.

In a further assay the test system is SN12C renal. The experiment in a line: NCI-60 cell line screen, 48 h.
In turn, `CC[C@]1(Cc2ccc(OC)c(OC)c2)[C@@H]2C[C@@H](C3OCCO3)ON2O[C@H](OC2CCCC2(c2ccccc2)c2ccccc2)[C@@H]1OC(C)=O` (stereo partly drawn) gave a TGI of over 100 µM.

`N#CC1(C#N)C2CCCCC23OC(=N)C1(C#N)C(c1ccccc1)O3` (stereo not drawn): the TGI worked out at 26.7 µM.

As for `CCN1CCN=c2c3cc(OC)ccc3n3cnc4ccc1c2c43`, the TGI stood at 0.433 µM.

As to `Cc1ccsc1/C=N/Nc1ccc2ccccc2n1`, the TGI was over 100 µM.

The subject of a further assay is TK-10 renal. The experiment in a line: NCI-60 cell line screen, 48 h.
`CC[C@]1(Cc2ccc(OC)c(OC)c2)[C@@H]2C[C@@H](C3OCCO3)ON2O[C@H](OC2CCCC2(c2ccccc2)c2ccccc2)[C@@H]1OC(C)=O` (stereo partly drawn) gave a TGI of over 100 µM.

As for `N#CC1(C#N)C2CCCCC23OC(=N)C1(C#N)C(c1ccccc1)O3` (stereo not drawn), the TGI is 37.6 µM.

The compound `CCN1CCN=c2c3cc(OC)ccc3n3cnc4ccc1c2c43` came in with a TGI of 6.66 µM.

`Cc1ccsc1/C=N/Nc1ccc2ccccc2n1` gave a TGI of 66.2 µM.

For another assay, the system named is OVCAR-4 ovarian. The experiment in a line: NCI-60 cell line screen, 48 h.
In the case of `CCN1CCN=c2c3cc(OC)ccc3n3cnc4ccc1c2c43`, the TGI is 1.86 µM.

Compound `Cc1ccsc1/C=N/Nc1ccc2ccccc2n1` gave a TGI of over 100 µM.

Another assay has as its system HOP-92 NSCLC. In words: NCI-60 cell line screen, 48 h.
As to `N#CC1(C#N)C2CCCCC23OC(=N)C1(C#N)C(c1ccccc1)O3` (stereo not drawn), the TGI was 33.6 µM.

In the case of `CCN1CCN=c2c3cc(OC)ccc3n3cnc4ccc1c2c43`, the TGI is 6.32 µM.

The compound `Cc1ccsc1/C=N/Nc1ccc2ccccc2n1` showed a TGI of 82 µM.

The next assay relates to KM12 colon. The experiment in a line: NCI-60 cell line screen, 48 h.
Compound `CC[C@]1(Cc2ccc(OC)c(OC)c2)[C@@H]2C[C@@H](C3OCCO3)ON2O[C@H](OC2CCCC2(c2ccccc2)c2ccccc2)[C@@H]1OC(C)=O` (stereo partly drawn) gave a TGI of 29.5 µM.

The compound `N#CC1(C#N)C2CCCCC23OC(=N)C1(C#N)C(c1ccccc1)O3` (stereo not drawn) yielded a TGI of 25.8 µM.

As to `CCN1CCN=c2c3cc(OC)ccc3n3cnc4ccc1c2c43`, the TGI is 1.21 µM.

With `Cc1ccsc1/C=N/Nc1ccc2ccccc2n1`, the TGI is over 100 µM.

Another assay deals with SK-OV-3 ovarian. The experiment in a line: NCI-60 cell line screen, 48 h.
In turn, `CC[C@]1(Cc2ccc(OC)c(OC)c2)[C@@H]2C[C@@H](C3OCCO3)ON2O[C@H](OC2CCCC2(c2ccccc2)c2ccccc2)[C@@H]1OC(C)=O` (stereo partly drawn) had a TGI of over 100 µM.

Turning to `N#CC1(C#N)C2CCCCC23OC(=N)C1(C#N)C(c1ccccc1)O3` (stereo not drawn), the TGI is over 100 µM.

Turning to `CCN1CCN=c2c3cc(OC)ccc3n3cnc4ccc1c2c43`, the TGI came out at 1.79 µM.

As for `Cc1ccsc1/C=N/Nc1ccc2ccccc2n1`, the TGI was 48 µM.

For a further assay, the system named is T-47D breast. The experiment in a line: NCI-60 cell line screen, 48 h.
Take `CC[C@]1(Cc2ccc(OC)c(OC)c2)[C@@H]2C[C@@H](C3OCCO3)ON2O[C@H](OC2CCCC2(c2ccccc2)c2ccccc2)[C@@H]1OC(C)=O` (stereo partly drawn): the TGI is 50.3 µM.

`N#CC1(C#N)C2CCCCC23OC(=N)C1(C#N)C(c1ccccc1)O3` (stereo not drawn) registered a TGI of 57.9 µM.

Compound `CCN1CCN=c2c3cc(OC)ccc3n3cnc4ccc1c2c43` gave a TGI of 3.06 µM.

Turning to `Cc1ccsc1/C=N/Nc1ccc2ccccc2n1`, the TGI is over 100 µM.

In another assay the test system is MDA-MB-435. In words: NCI-60 cell line screen, 48 h.
`CC[C@]1(Cc2ccc(OC)c(OC)c2)[C@@H]2C[C@@H](C3OCCO3)ON2O[C@H](OC2CCCC2(c2ccccc2)c2ccccc2)[C@@H]1OC(C)=O` (stereo partly drawn): the TGI was found to be 46.9 µM.

Turning to `N#CC1(C#N)C2CCCCC23OC(=N)C1(C#N)C(c1ccccc1)O3` (stereo not drawn), the TGI is 83.6 µM.

For `CCN1CCN=c2c3cc(OC)ccc3n3cnc4ccc1c2c43`, the TGI was 1.31 µM.

With `Cc1ccsc1/C=N/Nc1ccc2ccccc2n1`, the TGI was over 100 µM.

Another assay relates to CAKI-1 renal. The experiment in a line: NCI-60 cell line screen, 48 h.
The compound `CC[C@]1(Cc2ccc(OC)c(OC)c2)[C@@H]2C[C@@H](C3OCCO3)ON2O[C@H](OC2CCCC2(c2ccccc2)c2ccccc2)[C@@H]1OC(C)=O` (stereo partly drawn) showed a TGI of 82.1 µM.

These data come from PubChem BioAssay (NCI).
